The record followed here is ChEMBL document CHEMBL1201862, “PubChem BioAssay data set” (2004).

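Interpolation was linear, between the two tested concentrations surrounding the appropriate level; five concentrations were tested over 48 hours in 96-well plates. Abbreviation: GI50, concentration required for 50% inhibition of growth.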 The source made the active and inactive calls. Rule as the data show it: active = GI50 up to about 1.1 µM and inactive = higher.

Common to all, as to assay: NCI-60 cell line screen, 48 h
Test [1] has as its system DLD-1.
Test [2] deals with DMS-273.
The subject of test [3] is HOP-18.
The subject of test [4] is KM-20L2.
In test [5] the test system is LXFL 529.
Test [6] concerns M19-MEL.
Test [7] relates to RXF 631.
The subject of test [8] is DMS-114.
For test [9], the system named is XF498.

`c1ccc2c(c1)C1=NCCN1c1ccccc1-2`: the GI50 in [1] was 1.77 µM (inactive); in test [2], 1.74 µM (inactive); in [3], 2.59 µM (inactive); in test [4], 2.92 µM (inactive); in test [5], 3.06 µM (inactive); in test [6], 3.44 µM (inactive). Moreover, the GI50 in [7] is 2.77 µM (inactive).
Take `COc1ccc(S(=O)(=O)N/N=C/C(=O)O)cc1`: the GI50 in test [1] is > 906 µM (inactive); in test [8], 490 µM (inactive); in test [2] it was 518 µM (inactive); in [3], > 1060 µM (inactive); in [4], > 1190 µM (inactive); in [6], 955 µM (inactive). The GI50 in [9] is 8.09 µM (inactive).
With `COc1ccc(/C=C/COC(C)=O)cc1OC`, the GI50 in test [8], in test [2], in test [4], in test [5] and in test [6] was > 100 µM (inactive) throughout.
Take `C[N+]1(C)C/C(=C/c2ccc(F)cc2)C(=O)/C(=C\c2ccc(F)cc2)C1`: the GI50 was 30.2 µM (inactive) in test [1]; 22.8 µM (inactive) in test [8]; 30.6 µM (inactive) in test [2]; > 100 µM (inactive) in [3]; > 100 µM (inactive) in test [4]; 38.9 µM (inactive) in [5]. The GI50 in [6] is 36.1 µM (inactive); in test [7] it was > 100 µM (inactive).
Take `O=C1CCCC(O)=C1SC1=C(O)CCCC1=O`: the GI50 was 35.2 µM (inactive) in [1]; > 100 µM (inactive) in test [2]; > 100 µM (inactive) in test [3]; > 100 µM (inactive) in [6]; > 100 µM (inactive) in test [7].
As for `N#CC(NNC(=O)c1ccccc1O)c1ccccc1O` (stereo not drawn), the GI50 was 3.26 µM (inactive) in test [1]; 2.38 µM (inactive) in [2]; 4.65 µM (inactive) in test [3]; 32.8 µM (inactive) in [4]; 18.6 µM (inactive) in test [5]; 4.45 µM (inactive) in test [6].
As to `CC(C)(C)c1ccc2c(c1)S(=O)(=O)Nc1cccc(c1)NS(=O)(=O)c1cc(C(C)(C)C)ccc1OCCOCCO2`, the GI50 in test [1], in [8], in test [2], in test [3], in [6] and in test [7] was > 100 µM (inactive) throughout.
In the case of `O=[N+]([O-])c1cccc(-c2oc(/C=N/c3ccccc3)c([N+](=O)[O-])c2-c2cccc([N+](=O)[O-])c2)c1`, the GI50 in [1], in test [8], in test [2], in test [4], in test [5] and in test [6] was > 100 µM (inactive) throughout. Moreover, the GI50 in test [7] was > 100 µM (inactive).
As to `Cc1ccc([S+]([O-])c2ccccc2[N+](=O)[O-])cc1` (stereo not drawn), the GI50 in test [1] was > 100 µM (inactive); in test [8] it was 36.5 µM (inactive); in test [2], 62.2 µM (inactive); in test [6] it was 10 µM (inactive); in test [7], 35 µM (inactive).
In the case of `O=P1(O)c2ccccc2Nc2cc(C(F)(F)F)ccc21`, the GI50 in [1], in [8], in test [2], in [3], in test [4] and in test [5] was > 100 µM (inactive) throughout. Moreover, the GI50 in [6] and in test [9] was > 100 µM (inactive) throughout.
In the case of `Cc1ccc(S(=O)(=O)N/N=C(\c2nc3ccc(Cl)cc3[nH]c2=O)C(O)c2ccco2)cc1` (stereo not drawn), the GI50 in test [1] is > 100 µM (inactive); in test [8], 22.3 µM (inactive); in [2], > 100 µM (inactive); in test [3], > 100 µM (inactive); in test [4], > 100 µM (inactive); in test [5], > 100 µM (inactive). The GI50 in test [6] was > 100 µM (inactive).
`Ic1ncnc2c1ncn2C1CCCO1` (stereo not drawn): the GI50 in test [1], in test [8], in [2], in test [3], in [4] and in test [6] was > 100 µM (inactive) each time. The GI50 in [9] was > 100 µM (inactive).
On to `COc1ccc2c3ccc4c(c3n(C)c2c1)C(=O)C=CC4=O`, for which the GI50 is 15.3 µM (inactive) in test [1]; 34.7 µM (inactive) in [2]; 36.7 µM (inactive) in test [3]; > 100 µM (inactive) in test [4]; 15.2 µM (inactive) in test [5]; 18.3 µM (inactive) in test [6]. The GI50 in test [9] is 24.4 µM (inactive).
As for `CCOC(=O)C(C)(C)Oc1ccc(/C=C/C(=O)c2ccc(Cl)cc2)cc1`, the GI50 in test [1] is 14.1 µM (inactive); in test [8], 17.4 µM (inactive); in [2], 16.7 µM (inactive); in test [4], 17.8 µM (inactive); in [5] it was 15.8 µM (inactive); in [6], 20 µM (inactive). Also, the GI50 is 19.5 µM (inactive) in test [7] and 18.8 µM (inactive) in test [9].
`CCOc1ccccc1NC(=O)CCC(=O)NN`: the GI50 in test [1], in [2], in test [4], in test [5], in test [7] and in test [9] was > 100 µM (inactive) in each case.
For `COc1ccc(Br)c(C(=O)N2CCc3ccccc32)c1N`, the GI50 in test [1] was 42.9 µM (inactive); in test [8], 30.4 µM (inactive); in test [2], 15.7 µM (inactive); in [3], 47.9 µM (inactive); in test [4] it was 69.5 µM (inactive); in test [5], 59.8 µM (inactive). The GI50 was 45.6 µM (inactive) in [6] and 31.9 µM (inactive) in test [9].
Consider `CC(C)=CC(=O)C/C(=N\NC(N)=S)C(=O)Nc1ccc(Cl)cc1`, for which the GI50 in test [1], in test [8], in test [2], in test [3], in test [4] and in test [5] was > 100 µM (inactive) each time. Further, in [6], the GI50 is > 100 µM (inactive).
Take `CC(C)(C)C(=O)/C=C/c1ccc(Oc2ccccc2)cc1`: the GI50 in test [1] is 15 µM (inactive); in [3], 19.3 µM (inactive); in test [4], 17.2 µM (inactive); in test [5] it was 13.2 µM (inactive); in [6] it was 23.5 µM (inactive); in [9], 15.2 µM (inactive).
Turning to `COc1cc(C2c3cc4c(cc3[C@@H](Nc3ccc(C#N)cc3)C3COC(=O)[C@H]23)OCO4)cc(OC)c1O` (stereo partly drawn), the GI50 in test [1] was 1.27 µM (inactive); in [8] it was 0.977 µM (active); in test [3], 1.16 µM (inactive); in test [4], 2.33 µM (inactive); in test [9], 3.2 µM (inactive).
`CC(C)=CCCC1(C)C=Cc2c(c(C)cc3c2[nH]c2cc(O)ccc23)O1` (stereo not drawn): the GI50 in test [1] was > 25 µM (inactive); in [8], > 25 µM (inactive); in test [2] it was > 25 µM (inactive); in test [3], 7.36 µM (inactive); in test [4], > 25 µM (inactive); in test [5], > 25 µM (inactive). Also, the GI50 in test [6] and in test [9] was > 25 µM (inactive) in each case.
